# From the Kinase Knowledgebase extract (Sharma et al. 2016)
# Biological target: MAPK14 (UniProt Q16539)
# Test: Inhibition of MAPK14 Kinase Activity
# Sequence of MAPK14 (Q16539 whole entry, looked up): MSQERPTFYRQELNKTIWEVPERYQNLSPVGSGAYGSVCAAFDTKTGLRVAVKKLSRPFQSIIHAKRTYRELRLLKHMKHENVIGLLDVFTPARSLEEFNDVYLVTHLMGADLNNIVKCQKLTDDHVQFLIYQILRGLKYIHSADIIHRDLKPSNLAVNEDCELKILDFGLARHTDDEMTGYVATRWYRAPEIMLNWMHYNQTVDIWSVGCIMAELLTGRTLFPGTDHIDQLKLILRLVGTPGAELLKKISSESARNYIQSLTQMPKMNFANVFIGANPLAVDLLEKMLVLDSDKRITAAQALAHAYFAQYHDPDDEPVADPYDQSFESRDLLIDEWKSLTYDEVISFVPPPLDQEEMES
row,IC50 [µM],Compound
1,< 10,CCS(=O)(=O)n1ncc2cc(-c3cc(C(=O)NC4CC4)ccc3C)ccc21
2,< 10,COC(=O)c1ccc(S(=O)(=O)n2ncc3cc(-c4cc(C(=O)NC5CC5)ccc4C)ccc32)o1
3,< 10,CNC(=O)c1ccc(CNC(=O)Cn2ncc3cc(-c4cc(C(=O)NC5CC5)ccc4C)ccc32)cc1
4,< 10,Cc1ccc(C(=O)Nc2nccs2)cc1-c1ccc2c(C3CCNCC3)noc2c1
5,< 10,COc1ccc(CNC(=O)Cn2ncc3cc(-c4cc(C(=O)NC5CC5)ccc4C)ccc32)cc1
6,< 10,Cc1ccc(C(=O)NC2CC2)cc1-c1ccc2c(N3CCOCC3)noc2c1
7,< 10,Cc1ccc(NC(=O)c2ccsc2)cc1-c1ccc2c(C3CCNCC3)noc2c1
8,< 10,CCCCS(=O)(=O)n1ncc2cc(-c3cc(C(=O)NC4CC4)cc(F)c3C)ccc21
9,< 10,Cc1c(F)cc(C(=O)NC2CC2)cc1-c1ccc2c(cnn2S(=O)(=O)c2cccs2)c1
10,< 10,CCCc1ccc(S(=O)(=O)n2ncc3cc(-c4cc(C(=O)NC5CC5)cc(F)c4C)ccc32)cc1
11,< 10,Cc1c(F)cc(C(=O)NC2CC2)cc1-c1ccc2c(cnn2C(=O)OC(C)(C)C)c1
12,< 10,Cc1ccc(C(=O)NC2CC2)cc1-c1ccc2c(CC(=O)Nc3nccs3)noc2c1
13,< 10,Cc1ccc(NC(=O)c2ccoc2)cc1-c1ccc2c(C3CCNCC3)noc2c1
14,< 10,Cc1ccc(C(=O)NC2CC2)cc1-c1ccc2c(cnn2S(C)(=O)=O)c1
15,< 10,CCCNC(=O)Cn1ncc2cc(-c3cc(C(=O)NC4CC4)ccc3C)ccc21
16,< 10,CCCCc1ccc(S(=O)(=O)n2ncc3cc(-c4cc(C(=O)NC5CC5)cc(F)c4C)ccc32)cc1
17,< 10,Cc1c(F)cc(C(=O)NC2CC2)cc1-c1ccc2[nH]nc(C)c2c1
18,< 10,Cc1ccc(C(=O)NC2CC2)cc1-c1ccc2c(CC(=O)NC3CC3)noc2c1
19,< 10,Cc1c(F)cc(C(=O)NC2CC2)cc1-c1ccc2c(C(=O)NC3CC3)noc2c1
20,< 10,Cc1c(F)cc(C(=O)NC2CC2)cc1-c1ccc2c(cnn2CC(=O)N2CCOCC2)c1
21,< 10,Cc1ccc(C(=O)NC2CC2)cc1-c1ccc2c(CN3CCOCC3)noc2c1
22,< 10,Cc1c(F)cc(C(=O)NC2CC2)cc1-c1ccc2c(cnn2S(=O)(=O)c2ccccc2)c1

row,IC50 [µM],Compound
1,< 10,Cc1ccc(C(=O)NC2CC2)cc1-c1ccc2c(CN3CCCC3)noc2c1
2,< 10,COC(=O)Cc1noc2cc(-c3cc(C(=O)NC4CC4)ccc3C)ccc12
3,< 10,CCCS(=O)(=O)n1ncc2cc(-c3cc(C(=O)NC4CC4)cc(F)c3C)ccc21
4,< 10,Cc1ccc(C(=O)NC2CC2)cc1-c1ccc2c(cnn2CC(=O)N2CCOCC2)c1
5,< 10,Cc1ccc(C(=O)NC2CC2)cc1-c1ccc2c(cnn2CC(=O)NCC(C)(C)C)c1
6,< 10,Cc1ccc(NC(=O)c2ccoc2)cc1-c1ccc2c(C)noc2c1
7,< 10,Cc1ccc(C(=O)NC2CC2)cc1-c1ccc2c(cnn2S(=O)(=O)c2ccccc2F)c1
8,< 10,COC(=O)c1ccc(CS(=O)(=O)n2ncc3cc(-c4cc(C(=O)NC5CC5)ccc4C)ccc32)cc1
9,< 10,Cc1c(F)cc(C(=O)NC2CC2)cc1-c1ccc2c(cnn2S(=O)(=O)c2cccc(F)c2)c1
10,< 10,CNC(=O)c1ccc(CNC(=O)Cn2ncc3cc(-c4cc(C(=O)NC5CC5)cc(F)c4C)ccc32)cc1
11,< 10,Cc1c(F)cc(C(=O)NC2CC2)cc1-c1ccc2c(C(=O)N(C)C)noc2c1
12,< 10,Cc1cccc(S(=O)(=O)n2ncc3cc(-c4cc(C(=O)NC5CC5)cc(F)c4C)ccc32)c1
13,< 10,Cc1c(F)cc(C(=O)NC2CC2)cc1-c1ccc2c(cnn2CC(=O)NCC(C)(C)C)c1
14,< 10,Cc1ccc(C(=O)NC2CC2)cc1-c1ccc2c(CC(=O)N3CCNCC3)noc2c1
15,< 10,Cc1c(F)cc(C(=O)NC2CC2)cc1-c1ccc2c(cnn2S(=O)(=O)Cc2ccccc2)c1
16,< 10,Cc1ccc(CNC(=O)Cn2ncc3cc(-c4cc(C(=O)NC5CC5)ccc4C)ccc32)cc1
17,< 10,Cc1c(F)cc(C(=O)NC2CC2)cc1-c1ccc2c(cnn2S(=O)(=O)c2cn(C)c(C)n2)c1
18,< 10,Cc1c(F)cc(C(=O)NC2CC2)cc1-c1ccc2c(cnn2S(=O)(=O)c2ccccc2Cl)c1
19,< 10,CCCS(=O)(=O)n1ncc2cc(-c3cc(C(=O)NC4CC4)ccc3C)ccc21
20,< 10,Cc1ccc(C(=O)NC2CC2)cc1-c1ccc2c(cnn2S(=O)(=O)c2ccc(C(F)(F)F)cc2)c1
21,< 10,Cc1ccc(C(=O)NC2CC2)cc1-c1ccc2c(cnn2S(=O)(=O)c2c(C)noc2C)c1
22,< 10,Cc1ccc(C(=O)NC2CC2)cc1-c1ccc2c(cnn2S(=O)(=O)c2cccc(C#N)c2)c1
